Laboratory results published in PubChem BioAssay AID1963964 (Molecular Pharmacology Branch, DTP, NCI, 2024).

System: 997726-040-R-J2-PDC tumor spheroids, viability
Assay: Anticancer human tumor 997726-040-R-J2-PDC patient-derived squamous cell lung carcinoma cell line growth inhibition [PI3K]
Conditions: spheroids with HUVEC and MSC; for viability, T/C: stronger effect = lower value
Summary of the method: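 Tumor cells were combined with HUVEC and MSCs into spheroids, then dosed with PI3K-inhibitor combinations over half-log ranges capped near clinical Cmax or 10 microM.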

[1] = curve of first compound, second compound 0.0316 µM
[2] = curve of first compound, second compound 0.1 µM
[3] = curve of first compound, second compound 0.316 µM
[4] = curve of first compound, second compound 1 µM
[5] = curve of first compound, second compound 3.16 µM
[6] = curve of first compound, second compound 10 µM
[7] = second compound 0.0316 µM, first compound 0.00316 µM
[8] = second compound 0.0316 µM, first compound 0.01 µM
[9] = second compound 0.0316 µM, first compound 0.0316 µM
[10] = second compound 0.0316 µM, first compound 0.1 µM
[11] = second compound 0.1 µM, first compound 0.00316 µM
[12] = second compound 0.1 µM, first compound 0.01 µM
[13] = second compound 0.1 µM, first compound 0.0316 µM
[14] = second compound 0.1 µM, first compound 0.1 µM
[15] = second compound 0.316 µM, first compound 0.00316 µM
[16] = second compound 0.316 µM, first compound 0.01 µM
[17] = second compound 0.316 µM, first compound 0.0316 µM
[18] = second compound 0.316 µM, first compound 0.1 µM
[19] = second compound 1 µM, first compound 0.00316 µM
[20] = second compound 1 µM, first compound 0.01 µM
[21] = second compound 1 µM, first compound 0.0316 µM
[22] = second compound 1 µM, first compound 0.1 µM
[23] = second compound 3.16 µM, first compound 0.00316 µM
[24] = second compound 3.16 µM, first compound 0.01 µM
[25] = second compound 3.16 µM, first compound 0.0316 µM
[26] = second compound 3.16 µM, first compound 0.1 µM
[27] = second compound 10 µM, first compound 0.00316 µM
[28] = second compound 10 µM, first compound 0.01 µM
[29] = second compound 10 µM, first compound 0.0316 µM
[30] = second compound 10 µM, first compound 0.1 µM
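Also: spheroids exposed to compounds for seven days before readout.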

`CC(C)n1nc(-c2ccc3oc(N)nc3c2)c2c(N)ncnc21` + CC(Nc1ncnc2nc[nH]c12)c1cc2cccc(Cl)c2c(=O)n1-c1ccccc1 was tested, and the IC50 [1] was 23.4 nM, the IC50 [2] was 25 nM and the IC50 [3] was 23.9 nM. It also gave an IC50 [4] of 20.8 nM, an IC50 [5] of 6.14 nM and an IC50 [6] of 2.51 nM. For the same compound, the viability, T/C (second compound 0.0316 µM, first compound 0.000316 µM) was 99.1%, the viability, T/C (second compound 0.0316 µM, first compound 0.001 µM) was 89.6% and the viability, T/C [7] was 77.3%. The viability, T/C [8] was 62.1%, the viability, T/C [9] was 50% and the viability, T/C [10] was 18%. For the same compound, the viability, T/C (second compound 0.1 µM, first compound 0.000316 µM) was 99.3%, the viability, T/C (second compound 0.1 µM, first compound 0.001 µM) was 88.2% and the viability, T/C [11] was 80.2%. The viability, T/C [12] was 64%, the viability, T/C [13] was 48.6% and the viability, T/C [14] was 19.5%. The viability, T/C (second compound 0.316 µM, first compound 0.000316 µM) was 93.2%, the viability, T/C (second compound 0.316 µM, first compound 0.001 µM) was 90.7% and the viability, T/C [15] was 75.3%. The viability, T/C [16] was 62.8%, the viability, T/C [17] was 48.7% and the viability, T/C [18] was 17.4%. The viability, T/C (second compound 1 µM, first compound 0.000316 µM) was 86.2%, the viability, T/C (second compound 1 µM, first compound 0.001 µM) was 83.1% and the viability, T/C [19] was 70.2%. For the same compound, the viability, T/C [20] was 63.8%, the viability, T/C [21] was 43.4% and the viability, T/C [22] was 17%. The viability, T/C (second compound 3.16 µM, first compound 0.000316 µM) was 75.4%, the viability, T/C (second compound 3.16 µM, first compound 0.001 µM) was 65.2% and the viability, T/C [23] was 53.2%. The viability, T/C [24] was 45.4%, the viability, T/C [25] was 39.4% and the viability, T/C [26] was 16.7%. It also gave a viability, T/C (second compound 10 µM, first compound 0.000316 µM) of 56.8%, a viability, T/C (second compound 10 µM, first compound 0.001 µM) of 51.4% and a viability, T/C [27] of 50%. The viability, T/C [28] was 41.8%, the viability, T/C [29] was 31.2% and the viability, T/C [30] was 11.9%.
`Cc1nc(NC(=O)N2CCCC2C(N)=O)sc1-c1ccnc(C(C)(C)C(F)(F)F)c1` (stereo not drawn) was tested, and the viability, T/C (compound 0.0316 µM) was 91.9% [middle of 8 runs], the viability, T/C (compound 0.1 µM) was 77% [middle of 8 runs] and the viability, T/C (compound 0.316 µM) was 57.5% [middle of 8 runs]. For the same compound, the viability, T/C (compound 1 µM) was 42.9% [middle of 8 runs], the viability, T/C (compound 3.16 µM) was 30.8% [middle of 8 runs] and the viability, T/C (compound 10 µM) was 16.2% [middle of 8 runs]. The IC50 (compound alone, run of 06/12/2023) was 599 nM [middle of 8 runs].
`CC(C)NCC(C(=O)N1CCN(c2ncnc3c2C(C)CC3O)CC1)c1ccc(Cl)cc1` (stereo not drawn) was tested, and the viability, T/C (compound 0.0316 µM) was 88.5% [middle of 4 runs], the viability, T/C (compound 0.1 µM) was 77% [middle of 4 runs] and the viability, T/C (compound 0.316 µM) was 51.8% [middle of 4 runs]. The viability, T/C (compound 1 µM) was 25.5% [middle of 4 runs], the viability, T/C (compound 3.16 µM) was 13.7% [middle of 4 runs] and the viability, T/C (compound 10 µM) was 9.08% [middle of 4 runs]. For the same compound, the IC50 (curve of compound) was 336 nM [middle of 4 runs].
In the case of `CCN1CCN(Cc2ccc(Nc3ncc(F)c(-c4cc(F)c5nc(C)n(C(C)C)c5c4)n3)nc2)CC1` + Cc1nc(NC(=O)N2CCCC2C(N)=O)sc1-c1ccnc(C(C)(C)C(F)(F)F)c1, the IC50 [1] is reported as greater than 1000 nM, the IC50 [2] is reported as 466 nM and the IC50 [3] is reported as 7.34 nM. It also gave an IC50 [4] of less than 3.16 nM, an IC50 [5] of less than 3.16 nM and an IC50 [6] of less than 3.16 nM. The viability, T/C [7] was 82.8%, the viability, T/C [8] was 79.5% and the viability, T/C [9] was 61.5%. The viability, T/C [10] was 69.5%, the viability, T/C (second compound 0.0316 µM, first compound 0.316 µM) was 58.3% and the viability, T/C (second compound 0.0316 µM, first compound 1 µM) was 59.8%. It also gave a viability, T/C [11] of 76.7%, a viability, T/C [12] of 71.1% and a viability, T/C [13] of 67.3%. For the same compound, the viability, T/C [14] was 55.2%, the viability, T/C (second compound 0.1 µM, first compound 0.316 µM) was 52.3% and the viability, T/C (second compound 0.1 µM, first compound 1 µM) was 46.3%. For the same compound, the viability, T/C [15] was 52.5%, the viability, T/C [16] was 51.8% and the viability, T/C [17] was 45%. For the same compound, the viability, T/C [18] was 39%, the viability, T/C (second compound 0.316 µM, first compound 0.316 µM) was 37.1% and the viability, T/C (second compound 0.316 µM, first compound 1 µM) was 41.1%. It also gave a viability, T/C [19] of 40.8%, a viability, T/C [20] of 39.5% and a viability, T/C [21] of 37%. For the same compound, the viability, T/C [22] was 30.9%, the viability, T/C (second compound 1 µM, first compound 0.316 µM) was 29% and the viability, T/C (second compound 1 µM, first compound 1 µM) was 33.8%. The viability, T/C [23] was 29.9%, the viability, T/C [24] was 27% and the viability, T/C [25] was 26%. The viability, T/C [26] was 22.9%, the viability, T/C (second compound 3.16 µM, first compound 0.316 µM) was 23.4% and the viability, T/C (second compound 3.16 µM, first compound 1 µM) was 19.5%. It also gave a viability, T/C [27] of 16.9%, a viability, T/C [28] of 12.3% and a viability, T/C [29] of 10.3%. It also gave a viability, T/C [30] of 10.9%, a viability, T/C (second compound 10 µM, first compound 0.316 µM) of 11.9% and a viability, T/C (second compound 10 µM, first compound 1 µM) of 11.2%.
